Reference: US11006626B2, “Compounds for protection of cells” (Sulfateq B.V., priority 2012, dated 2021)

Test system: apherese blood platelets
Assay: Apheresis platelets stored with Sul 136, platelet activation with ADP and TRAP by flow cytometry (CD62p)
Format: cell-based
Parameters: Flow cytometry ADP / Flow cytometry TRAP: unit not given here
Conditions: for Flow cytometry ADP / Flow cytometry P-selectin MFI / Flow cytometry TRAP: stored at 4° C. with Sul 136
Experimental: 300 μM suspension of Sul 136 is added with a procedure, which keeps the bag content sterile and the Sul 136 is kept in suspension by frequent whirling and stored at 37° C. before it is added to the freshly harvested platelets. The Sul 136 suspension is added to three platelet bags directly from the bag. After addition, the content of the platelet bag is gently mixed. After 2 hours the first sample is drawn with a seal-docked sample bag. The sample bag is disconnected by welding and from this sample bag the samples are taken for hematology analyzing, aggregometer tests and the flow-cytometry tests. Swirling in the bag is reported by experience of the laboratory worker in the standard format. Platelets without Sul 136 put on a flatbed shaker and stored at room temperature were used as control. Another control is stored at 4° C. Platelet samples in which Sul 136 is added, are stored without shaking in a refrigerator at 4° C.
Platelet activation was performed on a Beckman Coulter FC 500 flowcytometer using CD 41 PE, CD 62p FITC, IgG1 FITC/IgG1 PE antibodies of a Beckman Coulter kit.
40 μl Dilution buffer was brought in about 15 minutes to 37° C.; 10 μl IgG FITC/IgG PE+10 μl CD41 PE was added and mixed with Vortex, incubated 5 min at room temperature; 1000 μl cold HBSS buffer was added; measurement in flowcytometer was performed.
40 μl Dilution buffer was brought in about 15 minutes to 37° C.; 10 μl CD41 PE+5 μl CD62 FITC was added and mixed with Vortex, incubated during 5 min. at room temperature; 1000 μl cold HBSS buffer was added; measurement in flowcytometer was performed.
36 μl Dilution buffer+4 μl ADP was brought in about 15 minutes to 37° C.; 10 μl CD41 PE+5 μl CD62 FITC was added and mixed with Vortex, incubated during 5 min. at room temperature; 1000 μl cold HBSS buffer was added; measurement in flowcytometer was performed.
36 μl Dilution buffer+4 μl TRAP was brought in about 15 minutes to 37° C.; 10 μl CD41 PE+5 μl CD62 FITC was added and mixed with Vortex; incubateed during 5 min. at room temperature; 1000 μl cold HBSS buffer was added; measurement in flowcytometer was performed.

Structure (SMILES): Cc1c(C)c2c(c(C)c1O)CCC(C)(C(=O)N1CCN(CC(=O)O)CC1)O2 (racemic) [SUL - 136, 2-(4-(6-hydroxy-2,5,7,8-tetramethylchroman-2-carbonyl)piperazin-1-yl)acetic acid]
- Flow cytometry ADP (Donor 2, Day 1): 2.12
- Flow cytometry P-selectin MFI (Donor 2, Day 1): 1.67 MFI
- Flow cytometry TRAP (Donor 2, Day 1): 1.88
- Flow cytometry ADP (Donor 2, Day 2): 2.53
- Flow cytometry P-selectin MFI (Donor 2, Day 2): 2.13 MFI
- Flow cytometry TRAP (Donor 2, Day 2): 2.35
- Flow cytometry ADP (Donor 2, Day 3): 3.21
- Flow cytometry P-selectin MFI (Donor 2, Day 3): 2.59 MFI
- Flow cytometry TRAP (Donor 2, Day 3): 2.76
- Flow cytometry ADP (Donor 2, Day 5): 3.19
- Flow cytometry P-selectin MFI (Donor 2, Day 5): 2.95 MFI
- Flow cytometry TRAP (Donor 2, Day 5): 3.16
- Flow cytometry ADP (Donor 2, Day 8): 3.08
- Flow cytometry P-selectin MFI (Donor 2, Day 8): 2.99 MFI
- Flow cytometry TRAP (Donor 2, Day 8): 3.22
- Flow cytometry ADP (Donor 2, Day 10): 2.83
- Flow cytometry P-selectin MFI (Donor 2, Day 10): 2.76 MFI
- Flow cytometry TRAP (Donor 2, Day 10): 2.96
- Flow cytometry ADP (Donor 2, Day 12): 2.62
- Flow cytometry P-selectin MFI (Donor 2, Day 12): 2.63 MFI
- Flow cytometry TRAP (Donor 2, Day 12): 2.73
- Flow cytometry ADP (Donor 2, Day 19): 1.99
- Flow cytometry P-selectin MFI (Donor 2, Day 19): 2.01 MFI
- Flow cytometry TRAP (Donor 2, Day 19): 2.14
- Flow cytometry ADP (Donor 3, Day 1): 2.71
- Flow cytometry P-selectin MFI (Donor 3, Day 1): 1.90 MFI
- Flow cytometry TRAP (Donor 3, Day 1): 2.08
- Flow cytometry ADP (Donor 3, Day 2): 3.49
- Flow cytometry P-selectin MFI (Donor 3, Day 2): 2.82 MFI
- Flow cytometry TRAP (Donor 3, Day 2): 3.62
- Flow cytometry ADP (Donor 3, Day 3): 4.96
- Flow cytometry P-selectin MFI (Donor 3, Day 3): 3.84 MFI
- Flow cytometry TRAP (Donor 3, Day 3): 4.42
- Flow cytometry ADP (Donor 3, Day 5): 4.84
- Flow cytometry P-selectin MFI (Donor 3, Day 5): 4.50 MFI
- Flow cytometry TRAP (Donor 3, Day 5): 5.04
- Flow cytometry ADP (Donor 3, Day 8): 4.91
- Flow cytometry P-selectin MFI (Donor 3, Day 8): 4.82 MFI
- Flow cytometry TRAP (Donor 3, Day 8): 5.24
- Flow cytometry ADP (Donor 3, Day 10): 4.25
- Flow cytometry P-selectin MFI (Donor 3, Day 10): 4.37 MFI
- Flow cytometry TRAP (Donor 3, Day 10): 5.04
- Flow cytometry ADP (Donor 3, Day 12): 3.84
- Flow cytometry P-selectin MFI (Donor 3, Day 12): 3.89 MFI
- Flow cytometry TRAP (Donor 3, Day 12): 4.20
- Flow cytometry ADP (Donor 3, Day 19): 2.37
- Flow cytometry P-selectin MFI (Donor 3, Day 19): 2.22 MFI
- Flow cytometry TRAP (Donor 3, Day 19): 2.01
- Flow cytometry ADP (donor 1, Day 1): 3.07
- Flow cytometry P-selectin MFI (donor 1, Day 1): 2.09 MFI
- Flow cytometry TRAP (donor 1, Day 1): 3.57
- Flow cytometry ADP (donor 1, Day 2): 3.28
- Flow cytometry P-selectin MFI (donor 1, Day 2): 3.04 MFI
- Flow cytometry TRAP (donor 1, Day 2): 3.78
- Flow cytometry ADP (donor 1, Day 3): 4.12
- Flow cytometry P-selectin MFI (donor 1, Day 3): 3.73 MFI
- Flow cytometry TRAP (donor 1, Day 3): 4.95
- Flow cytometry ADP (donor 1, Day 5): 4.20
- Flow cytometry P-selectin MFI (donor 1, Day 5): 4.12 MFI
- Flow cytometry TRAP (donor 1, Day 5): 5.55
- Flow cytometry ADP (donor 1, Day 8): 4.83
- Flow cytometry P-selectin MFI (donor 1, Day 8): 4.82 MFI
- Flow cytometry TRAP (donor 1, Day 8): 5.52
- Flow cytometry ADP (donor 1, Day 10): 4.46
- Flow cytometry P-selectin MFI (donor 1, Day 10): 4.48 MFI
- Flow cytometry TRAP (donor 1, Day 10): 5.52
- Flow cytometry ADP (donor 1, Day 12): 4.43
- Flow cytometry P-selectin MFI (donor 1, Day 12): 4.57 MFI
- Flow cytometry TRAP (donor 1, Day 12): 4.42
- Flow cytometry ADP (donor 1, Day 19): 2.74
- Flow cytometry P-selectin MFI (donor 1, Day 19): 2.92 MFI
- Flow cytometry TRAP (donor 1, Day 19): 2.76
- flow cytometry tests (stored at 4° C. with compound vs. platelets stored at room temperature): similar
